pIC50: −log10 of the molar value. Like-named read-outs stand apart in the source and are kept apart here.

Assay [1] addresses T1, IRAK1 (Homo sapiens, UniProt P51617).
T1 construct: purchased BPS Bioscience Inc. 40202
Description: LanthaScreen Eu Kinase Binding Assay for IRAK1, hit dose-response assay (DRC). As to conditions: for pIC50: read-out: DRC result, IC50; for IC50: read-out: DRC result, pIC50 (converted); for DRC result, activity class: class by pIC50 value. From the text: The experimental method of LanthaScreen^TM Eu Kinase Binding Assay for IRAK1 was developed based on the Invitrogen^TM IRAK1-GST LanthaScreen^TM binding assay. Purified recombinant IRAK1-His (cat. # 40202) was purchased from BPS Bioscience Inc. (San Diego, CA, USA). Kinase tracer 236 (cat. # PR9078A) was purchased from Thermo Fisher Scientific Inc. (Waltham, MA, USA). Eu-W1024-anti-6xHis antibody (cat. #AD0400) and 384-well white ProxiPlates^TM (cat. # 6008289) were purchased from Perkin Elmer, Inc. (Waltham, MA, USA). Echo-qualified 384 well COC low dead volume source microplates (cat. #001-16128) and Echo-qualified 384 well polypropylene microplates (cat. #001-14615) were purchased from Beckman Coulter Inc.(Indianapolis, IN, USA). The assay was carried out in an enclosed workcell with subdued lighting. All reagents were prepared in the assay buffer (50 mM HEPES, 10 mM MgCl 2 , 1 mM EGTA, 0.01% Brij-35, 1 mM DTT) and kept on ice. These included 2 x tracer 236 (0.2 μ M), 2 x IRAK1 /antibody solution (20 nM IRAK1-His, 4 nM Eu-W1024-anti-6xHis antibody) and 2 x antibody solution (4 nM Eu-W1024-anti-6xHis antibody). Five microliters of 2 x tracer 236 was dispensed into a 384-well white ProxiPlate^TM, followed by either 5 μ l of 2 x IRAK1/antibody solution or 5 μ l of 2 x antibody solution on a Tempest® dispenser (Formulatrix, Inc., Bedford, MA, USA). The plate was sealed on a Wasp plate sealer (KBiosciences Limited, Basildon, Essex, UK) and centrifuged at 1000 x g for 15 s on a HiG^TM automated centrifuge (BioNex Solutions Inc., San Jose, CA, USA) and incubated at room temperature for 30 min. The plate was then peeled and read on a PHERAstar® FSX (BMG LABTECH Inc., Cary, NC, USA) with a LanthaScreen^TM module at 340/615, 665 nm. The TR-FRET ratio (acceptor emission/donor emission x 10,000) was used as the readout.
A dose-response assay was conducted for each of the compound in the diversified set of 283 hits. Each compound was assayed in an 8-point curve with approximately 4-fold dilutions (subject to Echo dispense volume limits), starting at 30 μ M, and the assays were run in triplicates. The exact concentrations are 30, 7.5, 1.875, 0.469, 0.117, 0.029, 0.007, 0.002 μM . In each plate, three replicates of a staurosporine titration curve starting at 3 μ M were assayed in parallel as a reference.
The IC 50 of each dose-response curve was derived by fitting a four-parameter logistic (4PL) model, shown in Eq. 3, where the respective variables are defined as follows: • A : Minimum asymptote. Response value when x approaches infinity. • D : Maximum asymptote. Response value when x is very small or close to zero. • B : Slope factor (Hill’s slope). Steepness of the curve. • C : Inflection point. The concentration of the analyte that gives half-maximal response. 3 f(x)=A+D-A/1+x/C^B The 4PL model was fitted for each compound with data points for all three replicates all at once. As an additional quality control, 4PL regression models for all sub-micromolar compounds were manually inspected. Computed IC 50 were capped within the range of measured concentrations. In seven cases, where curve fits were erroneous and produced IC 50 values above assay sensitivity range, IC 50 values were reduced to the highest concentration used in the assay (30 μ M).
On the technique in general: TR-FRET usually uses a lanthanide donor and a delayed reading to cut background.

Assay [2] addresses T1, IRAK1. As to conditions: read-out: affinity; cited from earlier work.
Where [3] appears, read: 8-point curve from 30 μM, triplicates, 4PL fit.

T1 sequence (P51617 whole entry): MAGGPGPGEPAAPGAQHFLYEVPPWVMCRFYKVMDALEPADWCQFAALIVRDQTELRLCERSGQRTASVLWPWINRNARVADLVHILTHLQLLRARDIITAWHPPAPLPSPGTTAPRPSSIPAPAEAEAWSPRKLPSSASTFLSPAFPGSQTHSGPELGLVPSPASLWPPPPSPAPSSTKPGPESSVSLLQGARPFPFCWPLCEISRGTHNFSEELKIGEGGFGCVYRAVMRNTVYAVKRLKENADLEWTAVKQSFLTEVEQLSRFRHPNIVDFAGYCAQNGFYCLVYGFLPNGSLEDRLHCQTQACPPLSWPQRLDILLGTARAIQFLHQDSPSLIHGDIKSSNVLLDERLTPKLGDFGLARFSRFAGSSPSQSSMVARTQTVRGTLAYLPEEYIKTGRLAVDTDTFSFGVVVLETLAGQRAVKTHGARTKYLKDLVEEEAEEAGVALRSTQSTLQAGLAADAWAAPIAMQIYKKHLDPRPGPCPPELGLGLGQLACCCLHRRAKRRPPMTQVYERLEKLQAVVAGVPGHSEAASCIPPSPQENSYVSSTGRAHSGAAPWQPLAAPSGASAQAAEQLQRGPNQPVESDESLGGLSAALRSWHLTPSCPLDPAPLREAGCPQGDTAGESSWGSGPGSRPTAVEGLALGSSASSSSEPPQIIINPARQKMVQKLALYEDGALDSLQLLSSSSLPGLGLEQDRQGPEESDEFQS

Consider `CNc1cc2c(cn1)cc(-c1ccc(F)c(NC(=O)Nc3cc(C(C)(C)C)nn3C)c1)c(=O)n2C(C)C` [A1], for which, in assay [1] (setting [3]), the pIC50 is 7.05 and the IC50 is 91.2 nM. Besides, in assay [1], the “DRC result, activity class” value is listed as “nanomolar”.

Take `CCN1CCN(Cc2ccc(Nc3ncc(F)c(-c4cc(F)c5nc(C)n(C6CC6)c5c4)n3)nc2)CC1` [B2]: in assay [1] (setting [3]), the pIC50 was 7.22 and the IC50 is 63.1 nM. Besides, the “DRC result, activity class” value in assay [1] is reported as “nanomolar”.

For `CC(C)Cc1ccnc(NC(=O)Cc2ccc(-c3cnc4cc(-c5ccncc5)ccn34)cc2F)c1` [C2], in assay [1] (setting [3]), the pIC50 is 7.30 and the IC50 was 52.5 nM. For the same molecule, in assay [1], the “DRC result, activity class” value is recorded as “nanomolar”.

Regarding `CC(C)(C)c1cc(NC(=O)NCc2ccc(-c3cnc4cc(-c5ccncc5)ccn34)cc2)n[nH]1` [C1], in assay [1] (setting [3]), the “DRC result, pIC50” value amounted to 7.00 and the pIC50 is 7.00. Besides, the “DRC result, activity class” value in assay [1] is reported as “nanomolar”.

Regarding `Cc1nc(Nc2ncc(F)c(-c3cc(F)c4nc(C)n(C(C)C)c4c3)n2)ccc1N1CCN(C(C)C)CC1` [B1], in assay [1] (setting [3]), the pIC50 was 7.70 and the IC50 was 19.1 nM. Besides, in assay [1], the “DRC result, activity class” value is recorded as “nanomolar”.

Consider `C=CC(=O)Nc1cccc(C(=O)Nc2ccc(NC(=O)c3cccc(-c4ccn[nH]4)n3)cc2)c1` [JH-X-119-01], for which the pIC50 in assay [2] is 8.05.
